In brackets after ≈: the same amount, converted by molar mass.
How the values were obtained:
[1] = system: Staphylococcus aureus (ATCC29213); assay: In-vitro anti-bacterial activity, microtitre plate assay, IC90 determination (non-mycobacterial strains); format: cell-based; conditions: 90% inhibitory concentration for bacterial growth, resazurin fluorescence; for IC90 STA B29213: 24 hours; for IC90: Staphylococcus aureus, ATCC29213, 24 h, read-out: IC90 STA B29213
Procedure, shortened: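 Growth inhibition measured fluorometrically with resazurin (530/590 nm) after overnight 37 °C incubation under normal atmosphere. Bacteria added at roughly 100 TCID50 per well in Mueller-Hinton broth to five-fold compound dilution series; IC90 reported in μg/ml.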

[2] = system: Mycobacterium smegmatis (ATCC607); assay: In-vitro anti-bacterial activity against strain M. Smegmatis ATCC607; format: cell-based; conditions: 90% inhibitory concentration for bacterial growth, Alamar Blue fluorescence; for IC90 MSM 607: 48 hours; for IC90: Mycolicibacterium smegmatis, ATCC607, 48 h, read-out: IC90 MSM 607
Procedure, shortened: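 IC90 (μg/ml) derived from Alamar Blue fluorescence (530/590 nm) after 48 h growth at 37 °C under 5% CO2. About 250 CFU per well in Mueller-Hinton broth faced five-fold serial compound dilutions in BSA-containing wells.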

Structure (SMILES) | IC90 STA B29213 [1] [µg/mL] | IC90 MSM 607 [2] [µg/mL] | IC90 [2] [µg/mL] | IC90 [1] [µg/mL]
COc1nc2ccc(SC)cc2cc1C(c1ccc(Cl)cc1)C1(O)CCNC(c2ccc(F)cc2C)C1 (stereo not drawn) [Compound 274] | 1.91 (≈ 3.56 µM) | 1.07 (≈ 1.99 µM) |  | 
COc1nc2ccccc2cc1C(c1ccccc1)C1(O)CCNC(c2ccc(F)cc2C)C1 (stereo not drawn) [Compound 416] | 9.25 (≈ 20.3 µM) | 9.25 (≈ 20.3 µM) |  | 
COc1nc2ccc(Cl)cc2cc1C(c1ccc(SC)cc1)C1(O)CCNC(c2ccc(F)cc2C)C1 (stereo not drawn) [Compound 354] | 3.95 (≈ 7.35 µM) | 3.14 (≈ 5.85 µM) |  | 
COc1nc2ccc(SC)cc2cc1C(c1ccccc1)C1(O)CCNC(c2ccc(F)cc2C)C1 (stereo not drawn) [Compound 167] | 3.17 (≈ 6.31 µM) | 1.26 (≈ 2.51 µM) |  | 
O=c1[nH]c2ccc(Br)cc2cc1C(c1ccc(Cl)cc1)C1(O)CCNC(Cc2ccc(F)cc2)C1 (stereo not drawn) [Compound 341] | 2.36 (≈ 4.25 µM) |  | 4.71 (≈ 8.47 µM) | 
Cc1cc(F)ccc1C1CC(O)(C(c2ccc(Cl)cc2)c2cc3cc(Br)ccc3[nH]c2=O)CCN1 (stereo not drawn) [Compound 107] |  | 2.65 (≈ 4.77 µM) |  | 1.87 (≈ 3.36 µM)
Cc1cc(F)ccc1C1CC(O)(C(c2ccccc2)c2cc3cc(S(C)(=O)=O)ccc3[nH]c2=O)CCN1 (stereo not drawn) [Compound 237] |  | 11.06 (≈ 21.2 µM) |  | > 13.9
COc1nc2ccc(SC)cc2cc1C(c1ccc(Cl)cc1)C1(O)CCNC(CC2CCCCC2)C1 (stereo not drawn) [Compound 290] | 2.35 (≈ 4.47 µM) | 2.63 (≈ 5.01 µM) |  | 
CSc1ccc2[nH]c(=O)c(C(c3ccc(Cl)cc3)C3(O)CCNC(Cc4ccc(F)cc4)C3)cc2c1 (stereo not drawn) [Compound 334] | 8.87 (≈ 17 µM) | 7.04 (≈ 13.5 µM) |  | 
COc1nc2ccc(Cl)cc2cc1C(c1ccc(Cl)cc1)C1(O)CCNC(Cc2ccccc2)C1 (stereo not drawn) [Compound 95] | 2.02 (≈ 3.98 µM) | 1.43 (≈ 2.82 µM) |  | 
COc1nc2ccc(Cl)cc2cc1C(c1ccc(Cl)cc1)C1(O)CCNC(Cc2ccc(F)cc2)C1 (stereo not drawn) [Compound 345] | 4.38 (≈ 8.34 µM) | 3.48 (≈ 6.62 µM) |  | 
COc1nc2ccc(F)cc2cc1C(c1ccc(Cl)cc1)C1(O)CCNC(Cc2ccccc2)C1 (stereo not drawn) [Compound 54] | 3.54 (≈ 7.21 µM) | 1.77 (≈ 3.6 µM) |  | 
Cc1cc(F)ccc1C1CC(O)(C(c2ccc(Cl)cc2)c2cc3cc(S(C)(=O)=O)ccc3[nH]c2=O)CCN1 (stereo not drawn) [Compound 223] | >14.83 | >14.83 |  | 
Cc1cc(F)ccc1C1CC(O)(C(c2cccc(Cl)c2)c2cc3cc(Br)ccc3[nH]c2=O)CCN1 (stereo not drawn) [Compound 136] | 2.08 (≈ 3.74 µM) | 1.47 (≈ 2.64 µM) |  | 
COc1nc2ccc(Br)cc2cc1C(c1ccc(Cl)cc1)C1(O)CCNCC1Cc1cccc(F)c1 (stereo not drawn) [Compound 48] | 0.90 (≈ 1.58 µM) | 0.72 (≈ 1.26 µM) |  | 
Cc1cc(F)ccc1C1CC(O)(C(c2cccc(Cl)c2)c2cc3cc(S(C)(=O)=O)ccc3[nH]c2=O)CCN1 (stereo not drawn) [Compound 272] | >14.78 | >14.78 |  | 
COc1nc2ccc(S(C)(=O)=O)cc2cc1C(c1ccc(Cl)cc1)C1(O)CCNC(Cc2ccc(F)c(F)c2)C1 (stereo not drawn) [Compound 209] | 14.75 (≈ 25.1 µM) | 14.75 (≈ 25.1 µM) |  | 
COc1nc2ccc(Br)cc2cc1C(c1ccc(Cl)cc1)C1(O)CCNC(Cc2ccc(F)cc2F)C1 (stereo not drawn) [Compound 313] |  | 1.91 (≈ 3.25 µM) |  | 2.4 (≈ 4.08 µM)
Cc1cc(F)ccc1C1CC(O)(C(c2cccc(Cl)c2)c2cc3cc(S(C)(=O)=O)ccc3[nH]c2=O)CCN1 (stereo not drawn) [Compound 271] | 7.42 (≈ 13.4 µM) | 9.34 (≈ 16.8 µM) |  | 
Cc1cc(F)ccc1C1CC(O)(C(c2cccc(Cl)c2)c2cc3cc(Br)ccc3[nH]c2=O)CCN1 (stereo not drawn) [Compound 146] | 2.35 (≈ 4.23 µM) | 1.87 (≈ 3.36 µM) |  | 
CSc1ccc2[nH]c(=O)c(C(c3ccc(Cl)cc3)C3(O)CCNC(Cc4ccc(F)cc4)C3)cc2c1 (stereo not drawn) [Compound 282] | 7.02 (≈ 13.4 µM) | 7.02 (≈ 13.4 µM) |  | 
COc1nc2ccc(SC)cc2cc1C(c1ccc(Cl)cc1)C1(O)CCNCC1Cc1cccc(F)c1 (stereo not drawn) [Compound 286] | 4.22 (≈ 7.86 µM) | 2.12 (≈ 3.95 µM) |  | 
COc1nc2ccccc2cc1C(c1ccc(Cl)cc1)C1(O)CCNC(Cc2ccc(F)c(F)c2)C1 (stereo not drawn) [Compound 139] |  | 1.78 (≈ 3.5 µM) |  | 2 (≈ 3.93 µM)

Structure (SMILES) | IC90 STA B29213 [1] [µg/mL] | IC90 MSM 607 [2] [µg/mL] | IC90 [2] [µg/mL] | IC90 [1] [µg/mL]
COc1nc2ccccc2cc1C(c1ccccc1)C1(O)CCNC(Cc2ccccc2)C1 (stereo not drawn) [Compound 401] | >12.77 | >12.77 |  | 
COc1nc2ccc(S(C)(=O)=O)cc2cc1C(c1cccc(Cl)c1)C1(O)CCNC(Cc2ccc(F)cc2F)C1 (stereo not drawn) [Compound 326] | 5.37 (≈ 9.15 µM) | 4.78 (≈ 8.14 µM) |  | 
COc1nc2ccc(F)cc2cc1C(c1ccc(S(C)(=O)=O)cc1)C1(O)CCNC(c2ccc(F)cc2C)C1 (stereo not drawn) [Compound 418] | >17.6721 | 17.67 (≈ 32 µM) |  | 
COc1nc2ccc(Cl)cc2cc1C(c1ccc(Cl)cc1)C1(O)CCNC(c2cccnc2)C1 (stereo not drawn) [Compound 471] |  |  | 2.91 (≈ 5.89 µM) | 4.94 (≈ 9.99 µM)
Cc1cc(F)ccc1C1CC(O)(C(c2cccc(Cl)c2)c2cc3cc(S(C)(=O)=O)ccc3[nH]c2=O)CCN1 (stereo not drawn) [Compound 42] | 7.34 (≈ 13.2 µM) | 2.60 (≈ 4.68 µM) |  | 
COc1nc2ccccc2cc1C(c1ccc(Cl)cc1)C1(O)CCNC(Cc2ccccc2)C1 (stereo not drawn) [Compound 19] |  |  | 3.76 (≈ 7.95 µM) | 5.95 (≈ 12.6 µM)
O=c1[nH]c2ccc(Br)cc2cc1C(c1ccc(Cl)cc1)C1(O)CCNC(Cc2ccc(F)c(F)c2)C1 (stereo not drawn) [Compound 133] | 3.85 (≈ 6.71 µM) | 3.06 (≈ 5.33 µM) |  | 
COc1nc2ccccc2cc1C(c1ccccc1)C1(O)CCNC(c2ccc(F)cc2C)C1 (stereo not drawn) [Compound 16] |  |  | 9.08 (≈ 19.9 µM) | 7.21 (≈ 15.8 µM)
Cc1cc(F)ccc1C1CC(O)(C(c2cccc(Cl)c2)c2cc3cc(Br)ccc3[nH]c2=O)CCN1 (stereo not drawn) [Compound 143] | 1.82 (≈ 3.27 µM) | 2.04 (≈ 3.67 µM) |  | 
O=c1[nH]c2ccc(Br)cc2cc1C(c1ccc(Cl)cc1)C1(O)CCNC(CC2CCCCC2)C1 (stereo not drawn) [Compound 258] | 3.66 (≈ 6.73 µM) | 3.66 (≈ 6.73 µM) |  | 
O=c1[nH]c2ccc(Br)cc2cc1C(c1ccc(Cl)cc1)C1(O)CCNC(Cc2ccc(F)cc2F)C1 (stereo not drawn) [Compound 323] | 7.68 (≈ 13.4 µM) | 6.10 (≈ 10.6 µM) |  | 
COc1nc2ccc(Br)cc2cc1C(c1ccc(Cl)cc1)C1(O)CCN(C)C(Cc2ccccc2)C1 (stereo not drawn) [Compound 18] |  |  | 10 (≈ 17.7 µM) | 20 (≈ 35.3 µM)
CSc1ccc2[nH]c(=O)c(C(c3ccc(Cl)cc3)C3(O)CCNC(CC4CCCCC4)C3)cc2c1 (stereo not drawn) [Compound 297] | 3.43 (≈ 6.71 µM) | 13.65 (≈ 26.7 µM) |  | 
Cc1cc(F)ccc1C1CC(O)(C(c2ccc(S(C)(=O)=O)cc2)c2cc3cc(Cl)ccc3[nH]c2=O)CCN1 (stereo not drawn) [Compound 378] | 14.86 (≈ 26.8 µM) | 11.80 (≈ 21.3 µM) |  | 
COc1nc2ccc(Cl)cc2cc1C(c1ccc(Cl)cc1)C1(O)CCNC(c2ccc3ccccc3c2)C1 (stereo not drawn) [Compound 430] | 3.39 (≈ 6.24 µM) | 3.39 (≈ 6.24 µM) |  | 
CS(=O)(=O)c1ccc2[nH]c(=O)c(C(c3cccc(Cl)c3)C3(O)CCNC(Cc4ccc(F)cc4F)C3)cc2c1 (stereo not drawn) [Compound 327] | >15.31 | >15.31 |  | 
CS(=O)(=O)c1ccc2[nH]c(=O)c(C(c3ccc(Cl)cc3)C3(O)CCNC(Cc4ccc(F)c(F)c4)C3)cc2c1 (stereo not drawn) [Compound 212] | 7.60 (≈ 13.3 µM) | 6.04 (≈ 10.5 µM) |  | 
O=c1[nH]c2ccc(Br)cc2cc1C(c1ccc(Cl)cc1)C1(O)CCNC(Cc2ccc(F)cc2F)C1 (stereo not drawn) [Compound 324] | 1.93 (≈ 3.36 µM) | 3.43 (≈ 5.98 µM) |  | 
COc1nc2ccc(SC)cc2cc1C(c1cccc(Cl)c1)C1(O)CCNC(Cc2ccc(F)cc2F)C1 (stereo not drawn) [Compound 50] |  |  | 1.15 (≈ 2.07 µM) | 1.15 (≈ 2.07 µM)
COc1nc2ccc(S(C)(=O)=O)cc2cc1C(c1ccc(Cl)cc1)C1(O)CCNC(Cc2ccc(F)cc2F)C1 (stereo not drawn) [Compound 306] | 4.70 (≈ 8.01 µM) | 4.70 (≈ 8.01 µM) |  | 
COc1nc2ccc(S(C)(=O)=O)cc2cc1C(c1ccc(Cl)cc1)C1(O)CCNCC1Cc1cccc(F)c1 (stereo not drawn) [Compound 294] | 11.36 (≈ 20 µM) | 14.30 (≈ 25.1 µM) |  | 
COc1nc2ccc(Cl)cc2cc1C(c1ccc(Cl)cc1)C1(O)CCNCC1C (stereo not drawn) [Compound 422] | 7.67 (≈ 17.8 µM) | 8.61 (≈ 20 µM) |  | 

Reference: patent US9617244B2, “Antibacterial quinoline derivatives” (JANSSEN PHARMACEUTICA NV, priority 2012, dated 2017)
